Data as given in ChEMBL document CHEMBL1201861, “Genomics of Drug Sensitity in Cancer screening data, Wellcome Trust Sanger Institute”.

Columns and labels:
Assay in all cases: cells
MEG-01 = assay type: functional, cell-based, Homo sapiens; conditions: Homo sapiens, MEG-01
Description: SANGER: Inhibition of human MEG-01 cell growth in a cell viability assay.

Lu-65 = assay type: functional, cell-based, Homo sapiens; conditions: Homo sapiens, Lu-65
Description: SANGER: Inhibition of human LU-65 cell growth in a cell viability assay.

TE-8 = assay type: functional, cell-based, Homo sapiens; conditions: Homo sapiens, TE-8
Description: SANGER: Inhibition of human TE-8 cell growth in a cell viability assay.

BV-173 = assay type: functional, cell-based, Homo sapiens; conditions: Homo sapiens, BV-173
Description: SANGER: Inhibition of human BV-173 cell growth in a cell viability assay.

NKM-1 = assay type: functional, cell-based, Homo sapiens; conditions: Homo sapiens, NKM-1
Description: SANGER: Inhibition of human NKM-1 cell growth in a cell viability assay.

MZ2-MEL = assay type: functional, cell-based, Homo sapiens; conditions: Homo sapiens, MZ2-MEL
Description: SANGER: Inhibition of human MZ2-MEL cell growth in a cell viability assay.

TGBC1TKB = assay type: functional, cell-based, Homo sapiens; conditions: Homo sapiens, TGBC1TKB
Description: SANGER: Inhibition of human TGBC1TKB cell growth in a cell viability assay.

TE-10 = assay type: functional, cell-based, Homo sapiens; conditions: Homo sapiens, TE-10
Description: SANGER: Inhibition of human TE-10 cell growth in a cell viability assay.

SK-MEL-1 = assay type: functional, cell-based, Homo sapiens; conditions: Homo sapiens, SK-MEL-1
Description: SANGER: Inhibition of human SK-MEL-1 cell growth in a cell viability assay.

EW-1 = assay type: functional, cell-based, Homo sapiens; conditions: Homo sapiens, EW-1
Description: SANGER: Inhibition of human EW-1 cell growth in a cell viability assay.

CTB-1 = assay type: functional, cell-based, Homo sapiens; conditions: Homo sapiens, CTB-1
Description: SANGER: Inhibition of human CTB-1 cell growth in a cell viability assay.

NCI-H1092 = assay type: functional, cell-based, Homo sapiens; conditions: Homo sapiens, NCI-H1092
Description: SANGER: Inhibition of human NCI-H1092 cell growth in a cell viability assay.

HL-60 = assay type: functional, cell-based, Homo sapiens; conditions: Homo sapiens, HL-60
Description: SANGER: Inhibition of human HL-60 cell growth in a cell viability assay.

SW 954 = assay type: functional, cell-based, Homo sapiens; conditions: Homo sapiens, SW 954
Description: SANGER: Inhibition of human SW954 cell growth in a cell viability assay.

HT-144 = assay type: functional, cell-based, Homo sapiens; conditions: Homo sapiens, HT-144
Description: SANGER: Inhibition of human HT-144 cell growth in a cell viability assay.

NCI-H446 = assay type: functional, cell-based, Homo sapiens; conditions: Homo sapiens, NCI-H446
Description: SANGER: Inhibition of human NCI-H446 cell growth in a cell viability assay.

RPMI-8226 = assay type: functional, cell-based, Homo sapiens; conditions: Homo sapiens, RPMI-8226
Description: SANGER: Inhibition of human RPMI-8226 cell growth in a cell viability assay.

EW-11 = assay type: functional, cell-based, Homo sapiens; conditions: Homo sapiens, EW-11
Description: SANGER: Inhibition of human EW-11 cell growth in a cell viability assay.

A388 = assay type: functional, cell-based; conditions: Homo sapiens
Description: SANGER: Inhibition of human A388 cell growth in a cell viability assay.

KARPAS-45 = assay type: functional, cell-based, Homo sapiens; conditions: Homo sapiens, KARPAS-45
Description: SANGER: Inhibition of human KARPAS-45 cell growth in a cell viability assay.

NCI-H82 = assay type: functional, cell-based, Homo sapiens; conditions: Homo sapiens, NCI-H82
Description: SANGER: Inhibition of human NCI-H82 cell growth in a cell viability assay.

PSN1 = assay type: functional, cell-based, Homo sapiens; conditions: Homo sapiens, PSN1
Description: SANGER: Inhibition of human PSN1 cell growth in a cell viability assay.

DOHH-2 = assay type: functional, cell-based, Homo sapiens; conditions: Homo sapiens, DOHH-2
Description: SANGER: Inhibition of human DOHH-2 cell growth in a cell viability assay.

NEC8 = assay type: functional, cell-based, Homo sapiens; conditions: Homo sapiens, NEC8
Description: SANGER: Inhibition of human NEC8 cell growth in a cell viability assay.

NCI-H69 = assay type: functional, cell-based, Homo sapiens; conditions: Homo sapiens, NCI-H69
Description: SANGER: Inhibition of human NCI-H69 cell growth in a cell viability assay.

Calu-6 = assay type: functional, cell-based, Homo sapiens; conditions: Homo sapiens, Calu-6
Description: SANGER: Inhibition of human Calu-6 cell growth in a cell viability assay.

A3-KAW = assay type: functional, cell-based, Homo sapiens; conditions: Homo sapiens, A3-KAW
Description: SANGER: Inhibition of human A3-KAW cell growth in a cell viability assay.

P30-OHK = assay type: functional, cell-based, Homo sapiens; conditions: Homo sapiens, P30-OHK
Description: SANGER: Inhibition of human P30-OHK cell growth in a cell viability assay.

JVM-2 = assay type: functional, cell-based, Homo sapiens; conditions: Homo sapiens, JVM-2
Description: SANGER: Inhibition of human JVM-2 cell growth in a cell viability assay.

HD-MY-Z = assay type: functional, cell-based, Homo sapiens; conditions: Homo sapiens, HD-MY-Z
Description: SANGER: Inhibition of human HD-MY-Z cell growth in a cell viability assay.

KNS-42 = assay type: functional, cell-based; conditions: Homo sapiens
Description: SANGER: Inhibition of human KNS-42 cell growth in a cell viability assay.

NCI-H1155 = assay type: functional, cell-based, Homo sapiens; conditions: Homo sapiens, NCI-H1155
Description: SANGER: Inhibition of human NCI-H1155 cell growth in a cell viability assay.

EKVX = assay type: functional, cell-based, Homo sapiens; conditions: Homo sapiens, EKVX
Description: SANGER: Inhibition of human EKVX cell growth in a cell viability assay.

SK-N-DZ = assay type: functional, cell-based, Homo sapiens; conditions: Homo sapiens, SK-N-DZ; read-out: IC50
Description: SANGER: Inhibition of human SK-N-DZ cell growth in a cell viability assay.

NCI-H2126 = assay type: functional, cell-based, Homo sapiens; conditions: Homo sapiens, NCI-H2126
Description: SANGER: Inhibition of human NCI-H2126 cell growth in a cell viability assay.

OMC-1 = assay type: functional, cell-based, Homo sapiens; conditions: Homo sapiens, OMC-1
Description: SANGER: Inhibition of human OMC-1 cell growth in a cell viability assay.

NCI-H1581 = assay type: functional, cell-based, Homo sapiens; conditions: Homo sapiens, NCI-H1581
Description: SANGER: Inhibition of human NCI-H1581 cell growth in a cell viability assay.

KINGS-1 = assay type: functional, cell-based, Homo sapiens; conditions: Homo sapiens, KINGS-1
Description: SANGER: Inhibition of human KINGS-1 cell growth in a cell viability assay.

NCI-H23 = assay type: functional, cell-based, Homo sapiens; conditions: Homo sapiens, NCI-H23
Description: SANGER: Inhibition of human NCI-H23 cell growth in a cell viability assay.

SK-UT-1 = assay type: functional, cell-based, Homo sapiens; conditions: Homo sapiens, SK-UT-1
Description: SANGER: Inhibition of human SK-UT-1 cell growth in a cell viability assay.

SBC-1 = assay type: functional, cell-based, Homo sapiens; conditions: Homo sapiens, SBC-1
Description: SANGER: Inhibition of human SBC-1 cell growth in a cell viability assay.

VA-ES-BJ = assay type: functional, cell-based, Homo sapiens; conditions: Homo sapiens, VA-ES-BJ
Description: SANGER: Inhibition of human VA-ES-BJ cell growth in a cell viability assay.

ALL-PO = assay type: functional, cell-based, Homo sapiens; conditions: Homo sapiens, ALL-PO
Description: SANGER: Inhibition of human ALL-PO cell growth in a cell viability assay.

D283 Med = assay type: functional, cell-based, Homo sapiens; conditions: Homo sapiens, D283 Med
Description: SANGER: Inhibition of human D-283MED cell growth in a cell viability assay.

DJM-1 = assay type: functional, cell-based, Homo sapiens; conditions: Homo sapiens, DJM-1
Description: SANGER: Inhibition of human DJM-1 cell growth in a cell viability assay.

SNU-5 = assay type: functional, cell-based, Homo sapiens; conditions: Homo sapiens, SNU-5
Description: SANGER: Inhibition of human NCI-SNU-5 cell growth in a cell viability assay.

RCC10RGB = assay type: functional, cell-based, Homo sapiens; conditions: Homo sapiens, RCC10RGB
Description: SANGER: Inhibition of human RCC10RGB cell growth in a cell viability assay.

LOX IMVI = assay type: functional, cell-based, Homo sapiens; conditions: Homo sapiens, LOX IMVI
Description: SANGER: Inhibition of human LOXIMVI cell growth in a cell viability assay.

HT = assay type: functional, cell-based, Homo sapiens; conditions: Homo sapiens, HT
Description: SANGER: Inhibition of human HT cell growth in a cell viability assay.

## COc1ccc(N(C(=O)Oc2c(C)cccc2C)c2ccnc(Nc3ccc(N4CCN(C)CC4)cc3)n2)c(OC)c1
MEG-01
  IC50: < 0.02 µM
Lu-65
  IC50: > 5.12 µM
TE-8
  IC50: 0.239 µM
BV-173
  IC50: < 0.02 µM
NKM-1
  IC50: > 5.12 µM
MZ2-MEL
  IC50: 3.09 µM
TGBC1TKB
  IC50: > 5.12 µM
TE-10
  IC50: 4.28 µM
SK-MEL-1
  IC50: > 5.12 µM
EW-1
  IC50: > 5.12 µM
CTB-1
  IC50: > 5.12 µM
NCI-H1092
  IC50: > 5.12 µM
HL-60
  IC50: > 5.12 µM
SW 954
  IC50: 0.372 µM
HT-144
  IC50: 1.45 µM
NCI-H446
  IC50: > 5.12 µM
RPMI-8226
  IC50: > 5.12 µM
EW-11
  IC50: > 5.12 µM
A388
  IC50: > 5.12 µM
KARPAS-45
  IC50: > 5.12 µM
NCI-H82
  IC50: > 5.12 µM
PSN1
  IC50: > 5.12 µM
DOHH-2
  IC50: < 0.02 µM
NEC8
  IC50: > 5.12 µM
NCI-H69
  IC50: > 5.12 µM
Calu-6
  IC50: > 5.12 µM
A3-KAW
  IC50: > 5.12 µM
P30-OHK
  IC50: > 5.12 µM
JVM-2
  IC50: > 5.12 µM
HD-MY-Z
  IC50: > 5.12 µM
KNS-42
  IC50: > 5.12 µM
NCI-H1155
  IC50: > 5.12 µM
EKVX
  IC50: > 5.12 µM
SK-N-DZ
  IC50: > 5.12 µM
NCI-H2126
  IC50: > 5.12 µM
OMC-1
  IC50: > 5.12 µM
NCI-H1581
  IC50: > 5.12 µM
KINGS-1
  IC50: 1.97 µM
NCI-H23
  IC50: > 5.12 µM
SK-UT-1
  IC50: > 5.12 µM
SBC-1
  IC50: > 5.12 µM
VA-ES-BJ
  IC50: 0.463 µM
ALL-PO
  IC50: > 5.12 µM
D283 Med
  IC50: > 5.12 µM
DJM-1
  IC50: > 5.12 µM
SNU-5
  IC50: > 5.12 µM
RCC10RGB
  IC50: 0.426 µM
LOX IMVI
  IC50: > 5.12 µM
HT
  IC50: > 5.12 µM

## OC[C@H](Cc1ccccc1)Nc1nc(Oc2ccc3c(c2)CCC3)nc2c1ncn2Cc1ccc(-c2ccccc2)cc1
MEG-01
  IC50: 4.6 µM
Lu-65
  IC50: > 10.2 µM
TE-8
  IC50: 3.17 µM
BV-173
  IC50: > 10.2 µM
NKM-1
  IC50: > 10.2 µM
MZ2-MEL
  IC50: 4.42 µM
TGBC1TKB
  IC50: > 10.2 µM
TE-10
  IC50: 7.51 µM
SK-MEL-1
  IC50: > 10.2 µM
EW-1
  IC50: > 10.2 µM
CTB-1
  IC50: > 10.2 µM
NCI-H1092
  IC50: > 10.2 µM
HL-60
  IC50: > 10.2 µM
SW 954
  IC50: > 10.2 µM
HT-144
  IC50: 8.54 µM
NCI-H446
  IC50: > 10.2 µM
RPMI-8226
  IC50: > 10.2 µM
EW-11
  IC50: > 10.2 µM
A388
  IC50: > 10.2 µM
KARPAS-45
  IC50: > 10.2 µM
NCI-H82
  IC50: > 10.2 µM
PSN1
  IC50: 2.83 µM
DOHH-2
  IC50: > 10.2 µM
NEC8
  IC50: > 10.2 µM
NCI-H69
  IC50: > 10.2 µM
Calu-6
  IC50: > 10.2 µM
A3-KAW
  IC50: 7.38 µM
P30-OHK
  IC50: 3.56 µM
JVM-2
  IC50: > 10.2 µM
HD-MY-Z
  IC50: > 10.2 µM
KNS-42
  IC50: > 10.2 µM
NCI-H1155
  IC50: > 10.2 µM
EKVX
  IC50: > 10.2 µM
SK-N-DZ
  IC50: 2.23 µM
NCI-H2126
  IC50: > 10.2 µM
OMC-1
  IC50: > 10.2 µM
NCI-H1581
  IC50: > 10.2 µM
KINGS-1
  IC50: > 10.2 µM
NCI-H23
  IC50: > 10.2 µM
SK-UT-1
  IC50: > 10.2 µM
SBC-1
  IC50: > 10.2 µM
VA-ES-BJ
  IC50: 2.57 µM
ALL-PO
  IC50: > 10.2 µM
D283 Med
  IC50: > 10.2 µM
DJM-1
  IC50: > 10.2 µM
SNU-5
  IC50: > 10.2 µM
RCC10RGB
  IC50: > 10.2 µM
LOX IMVI
  IC50: > 10.2 µM
HT
  IC50: > 10.2 µM

## NC(=O)c1cccc(-c2cc(Nc3ccc(OC(F)(F)F)cc3)ncn2)c1
MEG-01
  IC50: 0.503 µM
Lu-65
  IC50: > 1.28 µM
TE-8
  IC50: > 1.28 µM
BV-173
  IC50: 0.286 µM
NKM-1
  IC50: > 1.28 µM
MZ2-MEL
  IC50: > 1.28 µM
TGBC1TKB
  IC50: > 1.28 µM
TE-10
  IC50: > 1.28 µM
SK-MEL-1
  IC50: > 1.28 µM
EW-1
  IC50: > 1.28 µM
CTB-1
  IC50: > 1.28 µM
NCI-H1092
  IC50: > 1.28 µM
HL-60
  IC50: > 1.28 µM
SW 954
  IC50: > 1.28 µM
HT-144
  IC50: > 1.28 µM
NCI-H446
  IC50: > 1.28 µM
RPMI-8226
  IC50: > 1.28 µM
EW-11
  IC50: > 1.28 µM
A388
  IC50: > 1.28 µM
KARPAS-45
  IC50: > 1.28 µM
NCI-H82
  IC50: > 1.28 µM
PSN1
  IC50: > 1.28 µM
DOHH-2
  IC50: > 1.28 µM
NEC8
  IC50: > 1.28 µM
NCI-H69
  IC50: > 1.28 µM
Calu-6
  IC50: > 1.28 µM
A3-KAW
  IC50: > 1.28 µM
P30-OHK
  IC50: > 1.28 µM
JVM-2
  IC50: > 1.28 µM
HD-MY-Z
  IC50: > 1.28 µM
KNS-42
  IC50: > 1.28 µM
NCI-H1155
  IC50: > 1.28 µM
EKVX
  IC50: > 1.28 µM
SK-N-DZ
  IC50: > 1.28 µM
NCI-H2126
  IC50: > 1.28 µM
OMC-1
  IC50: > 1.28 µM
NCI-H1581
  IC50: > 1.28 µM
KINGS-1
  IC50: > 1.28 µM
NCI-H23
  IC50: > 1.28 µM
SK-UT-1
  IC50: > 1.28 µM
SBC-1
  IC50: 1 µM
VA-ES-BJ
  IC50: > 1.28 µM
ALL-PO
  IC50: > 1.28 µM
D283 Med
  IC50: > 1.28 µM
DJM-1
  IC50: > 1.28 µM
SNU-5
  IC50: > 1.28 µM
RCC10RGB
  IC50: > 1.28 µM
LOX IMVI
  IC50: > 1.28 µM
HT
  IC50: > 1.28 µM
